Where a name gives a salt, the structure may show the parent alone. Read-outs that look alike come from different tables or passages of the source.
Key:
[1] = biological target: T1, ENaC (epithelial sodium channel) (Canis lupus familiaris, UniProt A0A8I3MKE6+A0A8I3Q679+Q95165); experiment: Epithelial sodium channel blocking activity (short circuit current, Ussing chambers) in canine bronchial epithelium; assay type: cell-based; settings: for Fold Amiloride (PSA4022 = 100): relative potency, PSA4022 = 100, using IC50 from PSA4022 in same run
T1 construct: endogenous in cells; host or cells: primary canine bronchial (airway) epithelial cells cultured at air-liquid interface, mounted in Ussing chambers
T1 sequence (A0A8I3Q679 1-649): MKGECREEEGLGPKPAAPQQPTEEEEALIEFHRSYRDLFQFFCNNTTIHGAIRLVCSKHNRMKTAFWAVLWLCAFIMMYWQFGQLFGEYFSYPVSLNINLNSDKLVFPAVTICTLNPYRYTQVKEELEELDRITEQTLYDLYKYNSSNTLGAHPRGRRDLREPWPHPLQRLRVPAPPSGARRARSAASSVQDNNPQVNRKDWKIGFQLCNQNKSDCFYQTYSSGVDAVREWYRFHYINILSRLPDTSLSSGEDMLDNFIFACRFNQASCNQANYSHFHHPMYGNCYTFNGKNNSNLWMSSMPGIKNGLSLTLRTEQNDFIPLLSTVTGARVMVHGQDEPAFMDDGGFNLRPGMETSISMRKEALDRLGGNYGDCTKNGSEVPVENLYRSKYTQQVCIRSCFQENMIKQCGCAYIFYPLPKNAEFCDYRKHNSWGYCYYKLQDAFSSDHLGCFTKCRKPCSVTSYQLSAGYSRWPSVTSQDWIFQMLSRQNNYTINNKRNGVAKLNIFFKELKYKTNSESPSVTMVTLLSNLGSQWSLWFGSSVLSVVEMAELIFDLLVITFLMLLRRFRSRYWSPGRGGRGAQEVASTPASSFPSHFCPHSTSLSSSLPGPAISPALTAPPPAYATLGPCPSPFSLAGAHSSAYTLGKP
T1 sequence (Q95165 1-641): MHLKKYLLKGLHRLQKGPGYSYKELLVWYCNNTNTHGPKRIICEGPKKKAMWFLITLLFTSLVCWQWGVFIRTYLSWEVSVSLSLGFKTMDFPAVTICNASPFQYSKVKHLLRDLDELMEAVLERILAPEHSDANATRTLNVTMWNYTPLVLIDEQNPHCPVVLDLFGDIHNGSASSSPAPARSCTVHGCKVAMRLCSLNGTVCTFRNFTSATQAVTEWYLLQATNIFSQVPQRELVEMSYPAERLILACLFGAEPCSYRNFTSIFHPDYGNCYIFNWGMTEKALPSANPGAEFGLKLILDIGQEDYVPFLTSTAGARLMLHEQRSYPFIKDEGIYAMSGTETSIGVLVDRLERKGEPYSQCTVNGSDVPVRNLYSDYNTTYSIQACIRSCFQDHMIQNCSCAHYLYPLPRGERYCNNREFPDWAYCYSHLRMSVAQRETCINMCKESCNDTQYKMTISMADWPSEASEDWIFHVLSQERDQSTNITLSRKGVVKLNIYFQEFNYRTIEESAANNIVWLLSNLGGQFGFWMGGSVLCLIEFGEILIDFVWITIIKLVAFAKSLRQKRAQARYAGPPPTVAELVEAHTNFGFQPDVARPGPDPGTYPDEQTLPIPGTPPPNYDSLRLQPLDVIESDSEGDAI
T1 sequence (A0A8I3MKE6 1-646): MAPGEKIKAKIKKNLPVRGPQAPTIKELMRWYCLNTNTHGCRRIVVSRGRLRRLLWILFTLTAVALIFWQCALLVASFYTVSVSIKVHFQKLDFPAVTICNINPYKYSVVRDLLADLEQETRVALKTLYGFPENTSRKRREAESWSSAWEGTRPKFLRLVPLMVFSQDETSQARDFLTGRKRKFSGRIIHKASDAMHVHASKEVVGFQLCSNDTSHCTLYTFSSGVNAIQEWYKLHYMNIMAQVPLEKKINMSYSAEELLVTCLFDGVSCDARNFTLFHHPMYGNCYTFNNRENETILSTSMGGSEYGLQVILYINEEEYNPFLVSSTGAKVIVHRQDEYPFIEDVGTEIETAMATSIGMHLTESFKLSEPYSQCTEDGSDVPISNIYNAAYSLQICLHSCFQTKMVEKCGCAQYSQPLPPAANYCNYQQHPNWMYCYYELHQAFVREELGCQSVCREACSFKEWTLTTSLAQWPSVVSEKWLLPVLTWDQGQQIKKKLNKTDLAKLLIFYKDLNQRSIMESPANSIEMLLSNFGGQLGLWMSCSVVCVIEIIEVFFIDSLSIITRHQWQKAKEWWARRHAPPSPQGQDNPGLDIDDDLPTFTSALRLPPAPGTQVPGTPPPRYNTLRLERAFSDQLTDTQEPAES
Method: One assay used to assess mechanism of action and/or potency of the compounds of Formula I involves the determination of lumenal drug inhibition of airway epithelial sodium currents measured under short circuit current (ISC) using airway epithelial monolayers mounted in Ussing chambers. Cells obtained from freshly excised human, dog or sheep airways are seeded onto porous 0.4 micron Snapwell™ Inserts (CoStar), cultured at air-liquid interface (ALI) conditions in hormonally defined media, and assayed for sodium transport activity (ISC in μA/cm^2) while bathed in Krebs Bicarbonate Ringer (KBR) in Ussing chambers. All test drug additions are to the lumenal bath with half-log dose addition protocols (from 1×10^−11 M to 3×10^−5 M), and the cumulative change in ISC (inhibition) recorded. All drugs are prepared in dimethyl sulfoxide as stock solutions at a concentration of 1×10^−2 M and stored at −20° C. Six preparations are typically run in parallel; one preparation per run incorporates a positive control. All data from the voltage clamps are collected via a computer interface and analyzed off-line.
Dose-effect relationships for all compounds are considered and analyzed by the Prism 3.0 program. EC50 values, maximal effective concentrations are calculated and compared to positive controls.
Utilizing the tests set forth above, Table 3 summaries the ENaC blocking ability of some of the amides of this invention when assayed in canine bronchial epithelium.

[2] = Solubility of compounds in sodium chloride solution; assay type: physicochemical; settings: saline or isotonic, thermodynamic from solid, ambient temperature
Method: Compound solubility was measured in water, 0.12 or 0.9% sodium chloride solution at ambient temperature for up to 10 days. Using a UV/Visable Spectrophotometer and applying Beer's Law with the calculated extinction coefficient of amiloride (18.6 mM, absorbance values at 362 nm taken from D. Mazzo 1986) the free base concentration in solution was calculated at specified time points. All samples were stored for the duration of the experiment in a single/closure system consisting of glass vials with a stopper-top closure. The vials were maintained at ambient temperature, in the dark, and in the upright position. Compound stability was measured using reverse phase high performance liquid chromatography on the final filtered pulled sample (day 10).
Table 2 gives the solubility in saline of selected amide bis methane sulfonic acid salts and compares them to the mono addition methane sulfonic acid salt of PSA 9714.

[3] = 0.12% sodium chloride solution, 0.12% NaCl solution, read-out: S1 = Solubility in 0.12% NaCl Solution

| Compound | melting point [°C] | IC50 [1] [nM] | other results |
| --- | --- | --- | --- |
| N=C(NCCCCc1ccc(OCC(=O)OCCN)cc1)NC(=O)c1nc(Cl)c(N)nc1N (as salt: hydrochloride) | 66 to 68 | – | – |
| N=C(NCCCCc1ccc(OCC(=O)OCC2CCNCC2)cc1)NC(=O)c1nc(Cl)c(N)nc1N (as salt: hydrochloride) | 100 to 102 | – | – |
| N=C(NCCCCc1ccc(OCC(=O)OCCN2CCCCC2)cc1)NC(=O)c1nc(Cl)c(N)nc1N | 60 to 62 | – | – |
| N=C(NCCCCc1ccc(OCC(=O)NCCN)cc1)NC(=O)c1nc(Cl)c(N)nc1N [compound 237778] | – | 5 ± 2 | Fold Amiloride (PSA4022 = 100) [1]: 146; solubility [2, 3]: > 5000 µg/mL |
| N=C(NCCCCc1ccc(OCC(N)=O)cc1)NC(=O)c1nc(Cl)c(N)nc1N [compound 9714] | – | 15.2 | Fold Amiloride (PSA4022 = 100) [1]: 62; solubility [2, 3]: < 100 µg/mL; solubility ([2]; 0.9% sodium chloride solution (normal saline), 0.9% NaCl solution (normal saline), read-out: S2 = Solubility in 0.9% NaCl Solution (normal Saline)): < 100 µg/mL |
| CN(C)CCCNC(=O)COc1ccc(CCCCNC(=N)NC(=O)c2nc(Cl)c(N)nc2N)cc1 (as salt: methanesulfonate) | 187 to 190 | – | – |
| CS(=O)(=O)O.CS(=O)(=O)O.N=C(NCCCCc1ccc(C(=O)N2CCNCC2)cc1)NC(=O)c1nc(Cl)c(N)nc1N [PSA23607, N-(3,5-Diamino-6-chloropyrazine-2-carbonyl)-N′-{4-[4-(piperazine-1-carbonyl)phenyl]butyl}guanidine bis-methanesulfonate] | 122 to 124 | 12.5 ± 0.5 | solubility ([2]; 0.12% NaCl solution, read-out: S1 = Solubility in 0.12% NaCl Solution): > 5000 µg/mL |

Reference: patent US20070021439A1, “Methods of reducing risk of infection from pathogens with soluble amide and ester pyrazinoylguanidine sodium channel blockers” (Parion Sciences, Inc., priority 2005, published 2007)
